In patent US20210387966A1, “2-AMINO-N-HETEROARYL-NICOTINAMIDES AS NAV1.8 INHIBITORS” (Merck Sharp & Dohme Corp., priority 2018, published 2021) one finds IC50 data, which are given here for 31 compounds.

T1 sequence (Q9Y5Y9 whole entry): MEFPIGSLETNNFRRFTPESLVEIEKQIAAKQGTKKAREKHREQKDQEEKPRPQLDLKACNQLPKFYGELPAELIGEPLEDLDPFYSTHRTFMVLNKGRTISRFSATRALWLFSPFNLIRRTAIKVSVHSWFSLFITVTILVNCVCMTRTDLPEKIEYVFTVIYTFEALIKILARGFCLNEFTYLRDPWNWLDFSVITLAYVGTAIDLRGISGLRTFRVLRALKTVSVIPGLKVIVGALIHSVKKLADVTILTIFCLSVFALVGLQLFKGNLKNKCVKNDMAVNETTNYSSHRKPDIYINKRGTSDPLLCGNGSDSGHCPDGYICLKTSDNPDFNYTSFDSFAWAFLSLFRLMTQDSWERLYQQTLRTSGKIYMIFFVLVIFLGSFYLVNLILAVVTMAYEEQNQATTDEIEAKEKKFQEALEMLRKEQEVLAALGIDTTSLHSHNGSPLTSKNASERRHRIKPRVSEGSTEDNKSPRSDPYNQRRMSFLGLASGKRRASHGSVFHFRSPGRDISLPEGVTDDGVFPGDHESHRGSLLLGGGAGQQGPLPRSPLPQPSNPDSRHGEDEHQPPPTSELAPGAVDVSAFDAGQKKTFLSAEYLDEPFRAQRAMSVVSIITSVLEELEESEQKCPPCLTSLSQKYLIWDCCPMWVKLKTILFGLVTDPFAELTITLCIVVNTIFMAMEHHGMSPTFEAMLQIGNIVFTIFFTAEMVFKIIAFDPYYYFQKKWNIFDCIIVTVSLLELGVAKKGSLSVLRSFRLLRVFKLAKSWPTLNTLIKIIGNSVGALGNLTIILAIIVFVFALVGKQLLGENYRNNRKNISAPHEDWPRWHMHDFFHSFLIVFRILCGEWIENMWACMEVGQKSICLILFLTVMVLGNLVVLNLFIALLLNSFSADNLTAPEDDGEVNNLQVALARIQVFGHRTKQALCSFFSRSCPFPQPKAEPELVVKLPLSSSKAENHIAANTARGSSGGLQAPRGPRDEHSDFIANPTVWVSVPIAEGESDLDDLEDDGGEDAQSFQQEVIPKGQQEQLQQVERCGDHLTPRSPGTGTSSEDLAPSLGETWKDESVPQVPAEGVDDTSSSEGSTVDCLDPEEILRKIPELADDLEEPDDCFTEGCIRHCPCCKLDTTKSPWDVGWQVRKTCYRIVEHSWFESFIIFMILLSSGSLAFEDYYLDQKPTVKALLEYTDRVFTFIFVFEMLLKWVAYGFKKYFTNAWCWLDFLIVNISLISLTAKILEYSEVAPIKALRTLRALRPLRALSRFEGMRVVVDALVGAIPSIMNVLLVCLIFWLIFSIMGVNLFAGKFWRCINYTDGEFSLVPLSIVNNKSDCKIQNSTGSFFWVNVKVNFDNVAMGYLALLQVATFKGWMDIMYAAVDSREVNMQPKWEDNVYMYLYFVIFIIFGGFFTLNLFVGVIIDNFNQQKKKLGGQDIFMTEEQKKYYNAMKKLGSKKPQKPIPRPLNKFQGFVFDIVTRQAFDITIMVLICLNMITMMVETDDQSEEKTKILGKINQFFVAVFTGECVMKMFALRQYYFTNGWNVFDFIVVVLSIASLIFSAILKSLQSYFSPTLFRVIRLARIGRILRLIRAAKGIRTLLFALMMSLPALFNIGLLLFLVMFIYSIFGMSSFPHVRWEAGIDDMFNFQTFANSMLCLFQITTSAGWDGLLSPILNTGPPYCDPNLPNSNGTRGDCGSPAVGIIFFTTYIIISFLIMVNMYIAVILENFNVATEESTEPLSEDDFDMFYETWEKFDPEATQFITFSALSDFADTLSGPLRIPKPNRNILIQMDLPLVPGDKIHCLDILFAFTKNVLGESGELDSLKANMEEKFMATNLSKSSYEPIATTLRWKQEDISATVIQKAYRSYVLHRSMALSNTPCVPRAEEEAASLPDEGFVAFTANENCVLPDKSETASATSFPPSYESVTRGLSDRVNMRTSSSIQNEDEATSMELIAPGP

This experiment addresses T1, human Nav1.8 channels (Homo sapiens, UniProt Q9Y5Y9).
T1 construct: expressed in transfected cells
Kind of experiment: Nav1.8 Qube automated patch-clamp assay. The experiment is classed as cell-based. Particulars: human Nav1.8 stably expressed in HEK 293 cells; whole-cell voltage clamp, room temperature; resting or inactivated state not specified; read-out: IC50 values (nM) for Examples in the Nav1.8 Qube Assay. Put shortly: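 Whole-cell patch clamp at room temperature on HEK293 cells stably expressing human Nav1.8. A 1 Hz train of ten 20 ms pulses to 10 mV from −90 mV holding, with −67 mV repolarization, was applied; first- and tenth-pulse peak currents gave resting and inactivated-state IC50s by Hill fitting.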
For orientation: The patch-clamp technique gives a direct electrical read-out from membranes.
For orientation: IC50 means the point on the concentration scale where inhibition reaches its midpoint. For `CC1CN(c2ncc(C(F)(F)F)cc2C(=O)Nc2ccnc(S(N)(=O)=O)c2)CCC(C(F)(F)F)O1` (single isomer, unassigned) [Example 120, 2-[(2S,7R or 2R,7S)-2-methyl-7-(trifluoromethyl)-1,4-oxazepan-4-yl]-N-(2-sulfamoylpyridin-4-yl)-5-(trifluoromethyl)pyridine-3-carboxamide], the IC50 came out at 2.9 nM.
On to `NS(=O)(=O)c1cc(NC(=O)c2cc(C3CC3)c(OCC(F)(F)F)nc2N2CCC(F)(F)CC2)ccn1` [Example 20, 5-cyclopropyl-2-(4,4-difluoropiperidin-1-yl)-N-(2-sulfamoylpyridin-4-yl)-6-(2,2,2-trifluoroethoxy)nicotinamide], for which the IC50 was determined as 67 nM.
As for `NS(=O)(=O)c1cc(NC(=O)c2cc(C(F)(F)F)cnc2N2CC3CC2CC3(F)F)ccn1` (single isomer, unassigned) [Example 72, 2-[(1S,4S or 1R,4R)-5,5-difluoro-2-azabicyclo[2.2.1]heptan-2-yl]-N-(2-sulfamoyl-4-pyridyl)-5-(trifluoromethyl)pyridine-3-carboxamide], the figure is 714 nM; as for `CC1CN(c2ncc(C(F)(F)F)cc2C(=O)Nc2ccnc(S(N)(=O)=O)c2)CCCC1(F)F` (stereo not shown) [Example 131, 2-(4,4-difluoro-3-methylazepan-1-yl)-N-(2-sulfamoylpyridin-4-yl)-5-(trifluoromethyl)nicotinamide], 2 nM; as for `NS(=O)(=O)c1cc(NC(=O)c2cc(C(F)(F)F)nnc2N2CCCC(F)(F)CC2)ccn1` [Example 179, 3-(4,4-difluoroazepan-1-yl)-N-(2-sulfamoylpyridin-4-yl)-6-(trifluoromethyl)pyridazine-4-carboxamide], 102 nM.
In the case of `NS(=O)(=O)c1cncc(NC(=O)c2cc(Cl)cnc2N2CCC(F)(F)CC2)c1` [Example 10, 5-chloro-2-(4,4-difluoro-1-piperidyl)-N-(5-sulfamoyl-3-pyridyl)pyridine-3-carboxamide] it was 174 nM; in that of `NS(=O)(=O)c1cc(NC(=O)c2cc(C(F)(F)F)cnc2N2CCc3sccc3C2)ccn1` [Example 79, 2-(6,7-dihydro-4H-thieno[3.2-c]pyridin-5-yl)-N-(2-sulfamoyl-4-pyridyl)-5-(trifluoromethyl)pyridin-3-carboxamide], 21 nM; in that of `Cc1nc(N2CCC(F)(F)CC2)c(C(=O)Nc2ccnc(S(N)(=O)=O)c2)cc1F` [Example 178, 2-(4,4-difluoropiperidin-1-yl)-5-fluoro-6-methyl-N-(2-sulfamoylpyridin-4-yl)nicotinamide], 13 nM.
In the case of `CC1(O)CCCN(c2ncc(C(F)(F)F)cc2C(=O)Nc2ccnc(S(N)(=O)=O)c2)C1` (stereo not shown) [Example 112, 2-(3-hydroxy-3-methyl-1-piperidyl)-N-(2-sulfamoyl-4-pyridyl)-5-(trifluoromethyl)pyridine-3-carboxamide] it was 8410 nM.
With `NS(=O)(=O)c1cncc(NC(=O)c2cc(C(F)(F)F)cnc2N2CCCCCC2)c1` [Example 145, 2-(azepan-1-yl)-N-(5-sulfamoyl-3-pyridyl)-5-(trifluoromethyl) pyridine-3-carboxamide], the IC50 was determined as 161 nM.
Consider `NS(=O)(=O)c1cc(NC(=O)c2cc(C(F)(F)F)cnc2N2C[C@H]3CC[C@@H](C2)C3(F)F)ccn1` [Example 63, 2-((1R,5S)-8,8-difluoro-3-azabicyclo[3.2.1]octan-3-yl)-N-(2-sulfamoylpyridin-4-yl)-5-(trifluoromethyl)nicotinamide], for which the IC50 worked out at 20 nM.
In the case of `NS(=O)(=O)c1cc(NC(=O)c2cc(C(F)(F)F)cnc2N2CCC(c3ccc(C(F)(F)F)cc3)C2)ccn1` (stereo not shown) [Example 85, N-(2-sulfamoyl-4 pyridyl)-5-(trifluoromethyl)-2-[3-[4-(trifluoromethyl)phenyl]pyrrolidin-1-yl]pyridine-3-carboxamide] it was 152 nM; in that of `Cc1nc(N2CCOC(C(F)F)C2)c(C(=O)Nc2ccnc(S(N)(=O)=O)c2)cc1Cl` (single isomer, unassigned) [Example 125, (R or S)-5-chloro-2-(2-(difluoromethyl)morpholino)-6-methyl-N-(2-sulfamoylpyridin-4-yl)nicotinamide], 144 nM; in that of `CC1CN(c2ncc(C(F)(F)F)cc2C(=O)Nc2ccnc(C(N)=O)c2)CCC1(F)F` (single isomer, unassigned) [Example 158, N-(2-carbamoyl-4-pyridyl)-2-[(3S or 3R)-4,4-difluoro-3-methyl-1-piperidyl]-5-(trifluoromethyl)-pyridine-3-carboxamide], 41 nM.
In the case of `N#Cc1ccc(NC(=O)c2cc(C(F)(F)F)cnc2N2CCC(F)(F)CC2)cn1` [Example 5, N-(6-cyanopyridin-3-yl)-2-(4,4-difluoropiperidin-1-yl)-5-(trifluoromethyl)nicotinamide] it was 820 nM.
As for `Cc1nc(N2CCC(F)(F)CC2)c(C(=O)Nc2ccnc(S(N)(=O)=O)c2)cc1C(C)(C)C` [Example 180, 5-(tert-butyl)-2-(4,4-difluoropiperidin-1-yl)-6-methyl-N-(2-sulfamoylpyridin-4-yl)nicotinamide], the figure is 14 nM; as for `NC(=O)c1cc(NC(=O)c2cc(C(F)(F)F)cnc2N2CCCC(F)(F)CC2)ccn1` [Example 137, 4-(2-(4,4-difluoroazepan-1-yl)-5-(trifluoromethyl)nicotinamido)picolinamide], 26 nM; as for `COc1cc(NC(=O)c2c(N3CCCCCC3)nc(C)c(Cl)c2C)ccn1` [Example 187, 2-(azepan-1-yl)-5-chloro-N-(2-methoxy-4-pyridyl)-4,6-dimethyl-pyridine-3-carboxamide], 141 nM.
As for `NS(=O)(=O)c1cc(NC(=O)c2cc(C(F)(F)F)cnc2N2CC3CC(F)(F)C3C2)ccn1` (single isomer, unassigned) [Example 64, 2-((1R,2S or 1S,5R)-6,6-difluoro-3-azabicyclo[3.2.0]heptan-3-yl)-N-(2-sulfamoylpyridin-4-yl)-5-(trifluoromethyl)nicotinamide], the IC50 amounted to 23 nM.
For the compound `NS(=O)(=O)c1cc(NC(=O)c2cc(C(F)(F)F)c(C3CC3)nc2N2CCCC(F)(F)CC2)ccn1` [Example 185, 6-cyclopropyl-2-(4,4-difluoroazepan-1-yl)-N-(2-sulfamoylpyridin-4-yl)-5-(trifluoromethyl)nicotinamide], the IC50 is 3.8 nM.
In the case of `C[C@@H]1CN(c2ncc(C(F)(F)F)cc2C(=O)Nc2ccnc(S(N)(=O)=O)c2)C[C@H](C)C1(F)F` [Example 52, 2-[(3S,5R)-4,4-difluoro-3,5-dimethyl-1-piperidyl]-N-(2-sulfamoyl-4-pyridyl)-5-(trifluoromethyl)pyridin-3-carboxamide] it was 2.8 nM; in that of `O=C(Nc1cc[nH]c(=O)c1)c1cc(C(F)(F)F)cnc1N1CCC2(CC1)CC2` [Example 208, N-(2-oxo-1,2-dihydropyridin-4-yl)-2-(6-azaspiro[2.5]octan-6-yl)-5-(trifluoromethyl)nicotinamide], 287 nM; in that of `CC1(C)CN(c2ncc(C(F)(F)F)cc2C(=O)Nc2ccnc(S(N)(=O)=O)c2)CC(C(F)(F)F)O1` (single isomer, unassigned) [Example 135, (R or S)-2-(2,2-dimethyl-6-(trifluoromethyl)morpholino)-N-(2-sulfamoylpyridin-4-yl)-5-(trifluoromethyl)nicotinamide], 57 nM.
Turning to `Cc1cc(Cl)nc(N2CCC(F)(F)CC2)c1C(=O)Nc1cncc(S(N)(=O)=O)c1` [Example 11, 6-chloro-2-(4,4-difluoropiperidin-1-yl)-4-methyl-N-(5-sulfamoylpyridin-3-yl)nicotinamide], the IC50 was found to be 212 nM.
As for `N#CC1CCN(c2ncc(C(F)(F)F)cc2C(=O)Nc2ccnc(S(N)(=O)=O)c2)C1` (single isomer, unassigned) [Example 130, (R or S)-2-(3-cyanopyrrolidin-1-yl)-N-(2-sulfamoylpyridin-4-yl)-5-(trifluoromethyl)nicotinamide], the figure is 3880 nM; as for `Cc1nc(N2CCC(F)(F)C(C)C2)c(C(=O)Nc2ccnc(S(N)(=O)=O)c2)cc1Cl` (single isomer, unassigned) [Example 54, (S or R)-5-chloro-2-(4,4-difluoro-3-methylpiperidin-1-yl)-6-methyl-N-(2-sulfamoylpyridin-4-yl)nicotinamide], 2.1 nM.
As to `NS(=O)(=O)c1cc(NC(=O)c2cc(C(F)(F)F)cnc2N2C[C@H]3C[C@@H](C2)C3(F)F)ccn1` [Example 76, 2-((1R,5S)-6,6-difluoro-3-azabicyclo[3.1.1]heptan-3-yl)-N-(2-sulfamoylpyridin-4-yl)-5-(trifluoromethyl)nicotinamide], the IC50 is 389 nM.
With `Cc1nc(N2CCCC(F)(F)CC2)c(C(=O)Nc2cnn(S(=O)(=O)CCN)c2)cc1Cl` [Example 33, N-{1-[(2-aminoethyl)sulfonyl]-1H-pyrazol-4-yl}-5-chloro-2-(4,4-difluoroazepan-1-yl)-6-methylpyridine-3-carboxamide], the 50% inhibitory concentration (IC50) is 35 nM.
With `NS(=O)(=O)c1cc(NC(=O)c2cc(C(F)(F)F)cnc2N2CCCCC2c2ccc(F)cc2)ccn1` (stereo not shown) [Example 95, 2-[2-(4-fluorophenyl)-1-piperidyl]-N-(2-sulfamoyl-4-pyridyl)-5-(trifluoromethyl)pyridine-3-carboxamide], the IC50 was 1420 nM.
For the compound `Cc1nc(N2CCC(F)(F)C(C)C2)c(C(=O)Nc2ccnc(S(N)(=O)=O)c2)cc1Cl` (single isomer, unassigned) [Example 55, (S or R)-5-chloro-2-(4,4-difluoro-3-methylpiperidin-1-yl)-6-methyl-N-(2-sulfamoylpyridin-4-yl)nicotinamide], the IC50 was found to be 1.4 nM.
In the case of `NS(=O)(=O)c1cc(NC(=O)c2cc(C(F)(F)F)cnc2N2CC(Oc3ccc(C(F)(F)F)cc3)C2)ccn1` [Example 97, N-(2-sulfamoyl-4-pyridyl)-5-(trifluoromethyl)-2-[3-[4-(trifluoromethyl)phenoxy]azetidin-1-yl]pyridine-3-carboxamide], the IC50 stood at 1900 nM.
